In patent publication US10597719B2, “Detection kit and simple method for detecting target nucleic acids” (National University Corporation Gunma University, priority 2015, dated 2020):
Where two headings read alike, the source gives them in different places.

What was measured:
18Ras = assay: Fluorescence titration, binding of dye to 18Ras; parameters: species or system human
Experimental: (§1) The following six kinds of G4-forming human-derived oligonucleotides were used:
the 5′-untranslated region of a human NRAS proto-oncogene transcript (18Ras).
(§2) Each of the eight kinds of oligonucleotides (22AG, 26Tel, 27Myc, 22Kit, 20Src, 18Ras, ssDNA, and dsDNA) was dissolved in the buffer TRS50K, PBS150K, PBS140KM, or PBS153NM at a concentration of 21 μM, and denatured by heating at 95° C. (or at 40° C. for 18Ras) for 0.5 minute using a thermal cycler, followed by cooling the resulting solution to 25° C. at a rate of 0.5° C./minute to allow refolding. Each solution was diluted to an appropriate oligonucleotide concentration, and its aliquots (50 μL each) were incubated at 25° C. for 30 minutes, followed by mixing each aliquot with 20 μL of a solution of a dye (ThT, ThT-DB, or ThT-HE; 10.5 μM) in the buffer TRS50K, PBS150K, PBS140KM, or PBS153NM. These mixtures were incubated at 25° C. for 30 minutes. An emission spectrum of each dye was obtained by excitation at 415 nm and monitoring of fluorescence between 450 nm and 600 nm.
(§3) FIGS. 3-4 to 3-6 show relative fluorescence intensities as the peaks of the emitted light at 485 nm (ThT and ThT-HE) or 500 nm (ThT-DB) with respect to the intensity of the dye that interacted with dsDNA, which was taken as 1. The X-axis represents the oligonucleotide concentration.

dsDNA = assay: Fluorescence titration, binding of dye to dsDNA standard; settings: for Kd: n.d. cells; for emission of fluorescence in the presence of dsDNA: dye 3 μM in PBS153NM, dsDNA 0-15 μM (FIG. 2)
Experimental: (§4) Besides these sequences, the following two kinds of oligonucleotides were used as standards:
(§5) The ssDNA was used as a single-stranded DNA, and the cDNA was used as a double-stranded DNA (dsDNA) by mixing with the ssDNA at a ratio of 1:1.
as §2, §3

22AG = assay: Fluorescence titration, binding of dye to 22AG; parameters: species or system human
Experimental: as §1
(§6) telomere regions (22AG and 26Tel);
as §2, §3

27Myc = assay: Fluorescence titration, binding of dye to 27Myc; parameters: species or system human; settings: for Kd: read-out: Kd 27Mye
Experimental: as §1
the nuclease-sensitive element region of the c-Myc P1 promoter (27Myc);
as §2, §3

22Kit = assay: Fluorescence titration, binding of dye to 22Kit; parameters: species or system human
Experimental: as §1
the 87-nucleotide upstream region of the transcription initiation site of a proto-oncogene encoding tyrosine kinase (22Kit);
as §2, §3

ssDNA = assay: Fluorescence titration, binding of dye to ssDNA standard; settings: n.d. cells
Experimental: as §4, §5, §2, §3

26Tel = assay: Fluorescence titration, binding of dye to 26Tel; parameters: species or system human
Experimental: as §1, §6, §2, §3

20Src = assay: Fluorescence titration, binding of dye to 20Src; parameters: species or system human; settings: n.d. cells, read-out: Kd 20Sre
Experimental: as §1
a proto-oncogene encoding a nonreceptor tyrosine kinase (20Src); and
as §2, §3

target G4 = assay: Affinity of dyes to the target G4, overall comparison from Table 1; type: binding, human; settings: according to Table 1
Experimental: as §2, §3

Structure (SMILES): Cc1ccc2c(c1)sc(-c1ccc(N(C)C)cc1)[n+]2C.[Cl-] [ThT, thioflavin T, reference compound]
- Kd (18Ras; buffer PBS150K): 10.3 ± 3 µM
- Kd (18Ras; buffer PBS153NM): 16 ± 4.2 µM
- Kd (dsDNA; buffer PBS150K): > 40 µM
- Kd (dsDNA; buffer PBS153NM): > 40 µM
- emission of fluorescence in the presence of dsDNA (dsDNA): considerable level of emission of fluorescence
- Kd (22AG; buffer PBS150K): 7.3 ± 0.3 µM
- Kd (22AG; buffer PBS153NM, n.d. cells): > 40 µM
- Kd (27Myc; buffer PBS150K): 8.7 ± 1 µM
- Kd (27Myc; buffer PBS153NM): 7.2 ± 0.6 µM
- Kd (22Kit; buffer PBS150K): 12.3 ± 1.8 µM
- Kd (22Kit; buffer PBS153NM): 7.2 ± 0.9 µM
- Kd (ssDNA; buffer PBS150K): > 40 µM
- Kd (ssDNA; buffer PBS153NM): > 40 µM
- Kd (26Tel; buffer PBS150K): 5 ± 0.8 µM
- Kd (26Tel; buffer PBS153NM): 25.3 ± 1.5 µM
- Kd (20Src; buffer PBS150K): > 40 µM
- Kd (20Src; buffer PBS153NM): > 40 µM

Structure (SMILES): Cc1ccc2c(c1)sc(-c1ccc(N(C)C)cc1)[n+]2CCO [ThT-HE]
- Kd (18Ras; buffer PBS150K): 20.9 ± 2.8 µM
- Kd (18Ras; buffer PBS153NM): 28.5 ± 9.7 µM
- Kd (dsDNA; buffer PBS150K): > 40 µM
- Kd (dsDNA; buffer PBS153NM): > 40 µM
- emission of fluorescence in the presence of dsDNA (dsDNA): hardly show fluorescence
- Kd (22AG; buffer PBS150K): 17.6 ± 3.6 µM
- Kd (22AG; buffer PBS153NM, n.d. cells): > 40 µM
- specificity to guanine quadruplex (27Myc; 27Myc versus dsDNA, PBS153NM (FIG. 2)): high specificity to guanine quadruplex
- Kd (27Myc; buffer PBS150K): 23.9 ± 1.4 µM
- Kd (27Myc; buffer PBS153NM): 13.7 ± 1.4 µM
- Kd (22Kit; buffer PBS150K): 40 ± 9 µM
- Kd (22Kit; buffer PBS153NM): 12.3 ± 1.8 µM
- Kd (ssDNA; buffer PBS150K): > 40 µM
- Kd (ssDNA; buffer PBS153NM): > 40 µM
- affinity to the target G4 compared with ThT (target G4): generally lower than affinity of ThT
- Kd (26Tel; buffer PBS150K): 10.6 ± 2.9 µM
- Kd (26Tel; buffer PBS153NM, n.d. cells): > 40 µM
- Kd (20Src; buffer PBS150K): > 40 µM
- Kd (20Src; buffer PBS153NM): > 40 µM
